Laboratory results as given in patent US8178688B2, “Benzamidine derivatives, process for the preparation thereof and pharmaceutical composition comprising the same” (Dong Wha Pharmaceutical Co., Ltd., priority 2004, dated 2012).

What follows are compounds tested on osteoclast differentiation (assay: Inhibitory effects on osteoclast differentiation (co-culture of bone marrow cells with osteoblast, TRAP staining)). Settings: Mus musculus, Osteoclast, 168 h, read-out: % inhibitory activity on osteoclastogenesis.
Format: cell-based, mice
Procedure: The effect of benzamidine derivatives of the present invention on osteoclast proliferation and differentiation process was evaluated via co-culture with osteoblast.
Tibia and Femora were aseptically ectomized from male ddY mice of 6-8 weeks to harvest bone marrow cells by using a syringe (21G, Korea Green Cross).
The bone marrow cells were suspended in 5 mL α-MEM medium (Gibco BRL Co.) containing sodium bicarbonate (2.0 g/L), streptomycin (100 mg/L) and penicillin ([…]). The harvested cells were centrifuged at 600×g for 5 mins to collect the whole quantity. To remove the red blood cells within bone marrow cells, 3 mL of Tris HCl (0.83% NH4Cl, pH7.5) was added and well mixed. After centrifuging above cells, the numbers of bone marrow cells were counted and then, the bone marrow cells were immediately used for co-culture system with osteoblast.
The calvaria were aseptically ectomized from neonate ICR mice of 1˜2 days, washed with PBS solution and incubated with a mixture of enzyme solution (0.2% collagenase and 0.1% dispase) at 37° C. gentle shaker. This procedure was sequentially repeated (10, 10, 10, 20, 20 and 20 mins), and then the calvaria cells having the characteristics of osteoblast mostly released from III-VI digestion groups were collected and washed with the medium (serum-free α-MEM). The washed cells were cultivated in α-MEM medium containing 10% FBS for 2˜3 days. After subculturing, these cells were used for this experiment, and diluted to reach the concentration of 1×10^6 cell/mL for storage at −70° C.
Benzamidine derivatives of the present invention were dissolved in a sterile distilled water or ethanol to make desired concentrations following dilution. The final volume of specimen added to the medium was determined at the ratio of 1:1000.
Bone marrow cells prepared, in the above and osteoblast from calvaria were co-cultured for osteoclast differentiation. Both bone marrow cells (25,000 cells/cm^2) and osteoblast (10,000 cells/cm^2) were plated on a 96 well plate in α-MEM medium containing FBS with specimen, and then cultured with test materials for 7 days. Differentiation factors, such as dexamethasone (10^−7M) and vitamin D3 (10^−8M), were also continuously added to the medium from the first day of cultivation. The medium was changed with fresh media containing a mixture of specimens and differentiation factors every 2˜3 day.
TRAP was used as a marker to measure osteoclast in consideration of its characteristics showing a positive reaction to TRAP staining solution. TRAP staining solution was prepared in a manner that 5 mg of naphtol AS-MS phosphate (sigma N-4875), a substrate and 25 mg of coloring agent (Fast Red Violet LB salt) were dissolved in N,N-dimethylformamide (about 0.5 mL), 0.1N NaHCO3 buffer solution (50 mL) containing 50 mM tartaric acid was added, and the reaction mixture was stored at refrigerator prior to use.
After culturing the cells for 7 days, the medium was removed from the wells, the cells were once washed with PBS solution and fixed to PBS containing 10% formalin for 2˜5 mins. The cells were fixed again in a mixed solution of ethanol and acetone (1/1) for about 1 min, and dried off. The cells were further treated by TRAP staining solution for 15 mins and washed with PBS. The experimental results were measured by counting the number of osteoclasts with 3 or more nuclei showing TRAP-positive reaction under a microscopic examination. Each of tests was confirmed over three times for gaining more reliable data.
As shown in the following table 7, the inhibitory effect of each experimental group on the differentiation of osteoclast versus controls was expressed by inhibitory percentage value.
CCCCCc1nc(-c2ccc(OCCCCCOc3ccc(C(=N)NO)cc3)cc2)c(C(C)C)s1 [Example 28, N-hydroxy-4-(5-[4-(5-isopropyl-2-pentyl-1,3-thiazol-4-yl)phenoxy]pentoxy)-benzamidine] was tested, and the inhibition at 1 µM was 29.6%. Work on CCCCCc1nc(-c2ccc(OCCCCCOc3ccc(C(=N)NO)cc3)cc2)c(CCCC)s1 [Example 36, N-hydroxy-4-(5-[4-(5-butyl-2-pentyl-1,3-thiazol-4-yl)phenoxy]pentoxy)-benzamidine] yielded an inhibition at 1 µM of 46.4%.

Same assay, conditions: Mus musculus, Osteoclast, 168 h; 1 μm; co-culture of bone marrow cells and osteoblast, 7 days, TRAP-positive osteoclasts versus controls; read-out: % inhibitory activity on osteoclastogenesis
Work on Cc1sc(C(C)C)nc1-c1ccc(OCCCCCOc2ccc(C(=N)NO)cc2)cc1 [Example 1, N-hydroxy-4-(5-[4-(2-isopropyl-5-methyl-1,3-thiazol-4-yl)phenoxy]pentoxy)-benzamidine] yielded an inhibition at 1 µM of 87%. Compound Cc1sc(C(C)C)nc1-c1ccc(OCCCCCOc2ccc(C(=N)N)cc2)cc1 [Example 2, 4-(5-[4-(2-isopropyl-5-methyl-1,3-thiazol-4-yl)phenoxy]pentoxy)-benzamidine] has an inhibition at 1 µM of 78.4%. CCc1nc(-c2ccc(OCCCCCOc3ccc(C(=N)NO)cc3)cc2)cs1 [Example 4, N-hydroxy-4-(5-[4-(2-ethyl-1,3-thiazol-4-yl)phenoxy]pentoxy)-benzamidine] showed an inhibition at 1 µM of 81.1%. For CCc1sc(C)nc1-c1ccc(OCCCCCOc2ccc(C(=N)NO)cc2)cc1 [Example 17, N-hydroxy-4-(5-[4-(5-ethyl-2-methyl-1,3-thiazol-4-yl)phenoxy]pentoxy)-benzamidine], the inhibition at 1 µM was 59.1%. CCc1sc(C(C)C)nc1-c1ccc(OCCCCCOc2ccc(C(=N)NO)cc2)cc1 [Example 19, N-hydroxy-4-(5-[4-(5-ethyl-2-isopropyl-1,3-thiazol-4-yl)phenoxy]pentoxy)-benzamidine] showed an inhibition at 1 µM of 42.6%. CCc1nc(-c2ccc(OCCCCCOc3ccc(C(=N)NO)cc3)cc2)c(C(C)C)s1 [Example 24, N-hydroxy-4-(5-[4-(2-ethyl-5-isopropyl-1,3-thiazol-4-yl)phenoxy]pentoxy)-benzamidine] showed an inhibition at 1 µM of 57.8%. CC(C)c1nc(-c2ccc(OCCCCCOc3ccc(C(=N)NO)cc3)cc2)c(C(C)C)s1 [Example 25, N-hydroxy-4-(5-[4-(2,5-diisopropyl-1,3-thiazol-4-yl)phenoxy]pentoxy)-benzamidine] was tested, and the inhibition at 1 µM was 26.5%. For CC(C)c1sc(-c2ccccc2)nc1-c1ccc(OCCCCCOc2ccc(C(=N)NO)cc2)cc1 [Example 26, N-hydroxy-4-(5-[4-(5-isopropyl-2-phenyl-1,3-thiazol-4-yl)phenoxy]pentoxy)-benzamidine], the inhibition at 1 µM was 42.9%. CC(C)c1sc(-c2cccnc2)nc1-c1ccc(OCCCCCOc2ccc(C(=N)NO)cc2)cc1 [Example 27, N-hydroxy-4-(5-[4-(5-isopropyl-2-pyridin-3-yl-1,3-thiazol-4-yl)phenoxy]pentoxy)-benzamidine] showed an inhibition at 1 µM of 56.5%. CCCc1sc(C)nc1-c1ccc(OCCCCCOc2ccc(C(=N)NO)cc2)cc1 [Example 29, N-hydroxy-4-(5-[4-(2-methyl-5-propyl-1,3-thiazol-4-yl)phenoxy]pentoxy)-benzamidine] was tested, and the inhibition at 1 µM was 96.3%. CCCCc1sc(-c2ccccc2)nc1-c1ccc(OCCCCCOc2ccc(C(=N)NO)cc2)cc1 [Example 33, N-hydroxy-4-(5-[4-(5-butyl-2-phenyl-1,3-thiazol-4-yl)phenoxy]pentoxy)-benzamidine] showed an inhibition at 1 µM of 49.5%. With Cc1nc(-c2ccc(OCCCCCOc3ccc(C(=N)NO)cc3)cc2)c(Cc2ccccc2)s1 [Example 38, N-hydroxy-4-(5-[4-(5-benzyl-2-methyl-1,3-thiazol-4-yl)phenoxy]pentoxy)-benzamidine] the inhibition at 1 µM was 56.8%. In the case of Cc1nc(-c2ccc(OCCCCCOc3ccc(C(=N)NO)cc3)cc2)c(CCCl)s1 [Example 42, N-hydroxy-4-(5-[4-(5-(2-chloro-ethyl)-2-methyl-1,3-thiazol-4-yl)phenoxy]pentoxy)-benzamidine], the inhibition at 1 µM is reported as 90.9%. With Cc1nc(-c2ccc(OCCCCCOc3ccc(C(=N)NO)cc3)cc2)c(CC(C)C)s1 [Example 44, N-hydroxy-4-(5-[4-(5-isobutyl-2-methyl-1,3-thiazol-4-yl)phenoxy]pentoxy)-benzamidine] the inhibition at 1 µM was 96.6%.
